# Reference: PubChem BioAssay AID2060502 (Molecular Pharmacology Branch, DTP, NCI, 2025)
# System: 885724-159-R-J1-PDC complex spheroid viability
# Assay: Anticancer human tumor 885724-159-R-J1-PDC patient-derived pancreatic adenocarcinoma cell line growth inhibition [GQUAD]
# Conditions: for IC50: curve of first compound; for viability, T/C: stronger effect = lower value
# Excerpt: DNA G-quadruplex Stabilizer Agents in Combinations in Complex Spheroids
# A high-throughput screen of multi-cell type tumor spheroids was designed to identify active combinations of DNA G-quadruplex stabilizer agents and targeted small molecules. Complex spheroids include a stromal component modeled by human endothelial cells (HUVEC) and fibroblasts modeled by human mesenchymal stem cells (MSCs). The concentration ranges selected for each drug and investigational agent were based upon clinically achievable concentrations if the clinical Cmax of the agent was known.
# Compounds. The drugs and investigational agents: pidnarulex (CX-5461; NSC782164), APTO-253 (NSC789042), BRACO-19 (NSC847499), peposertib (NSC802822), ceralasertib (NSC780249), elimusertib (NSC800525), camonsertib (NSC841442), AZD-1390 (NSC803789), olaparib (NSC753686), talazoparib (NSC767125), ART-558 (NSC835418), sotorasib (NSC818433), MRTX-1133 (NSC836407), SN-38 (NSC673596), topotecan (NSC609699), etoposide (NSC141540), doxorubicin (NSC123127), gemcitabine (NSC613327), 5-fluorouracil (NSC19893), paclitaxel (NSC125973), vemurafenib (NSC761431), panobinostat (NSC761190), R-306465 (JNJ-16241199; NSC773264), adavosertib (NSC754352), TP-3654 (NSC805149), carboplatin (NSC241240), KSQ-4279 (NSC840948), and staurosporine (NSC755774) were obtained from the National Cancer Institute (NCI) Developmental Therapeutics Program Chemical Repository (34). The FDA-approved anticancer drug set is available from the NCI Developmental Therapeutics Program. […] The stock solutions were prepared in dimethyl sulfoxide (DMSO, Sigma-Aldrich, St. Louis, MO, cat. D2650) at 800-fold the tested concentration and stored at -70 degrees C prior to their use. All drugs and investigational agents were tested over a range starting from a high concentration at or near the clinical Cmax and decreasing in half-log increments. If the clinical Cmax for an agent had not been determined, the highest concentration tested was 10 microM.
# 2.3 Cell Culture. All cells were maintained in an incubator at 37 degrees C and 5% CO2 with 95% humidity. The PDC lines were cultured according to standard operating procedures established by the NCI PDMR. All PDCs were thawed and cultured in Matrigel-coated flasks prepared with a working solution of 1X Ham's F-12 nutrient mix, without supplementation (Invitrogen, cat. 11765054), 100 U/mL penicillin-streptomycin (Invitrogen, cat. 15140122), and 2.5% Matrigel (Corning Inc., cat. 354248) for the first three passages. The 857933-349-R-J2-PDC line was cultured in 6C/Colon 1B media, which includes advanced DMEM/F-12 (Thermo Fisher Scientific, cat. 12634028), 10 mM HEPES (Thermo Fisher Scientific, cat. 15630080), 1X GlutaMAX supplement (Thermo Fisher Scientific, cat. 35050061), 0.1 mg/mL primocin (InvivoGen, cat. ant-pm-2), 10% defined fetal bovine serum, heat inactivated (HyClone Laboratories Inc., cat. SH30070.03HI), 50% L-WRN conditioned media (ATCC, cat. CRL-3276), 1.25 mM N-Acetyl-L-cysteine (Sigma-Aldrich, cat. A9165), 10 mM nicotinamide (Sigma-Aldrich, cat. N0636), 1X B-27 supplement (Thermo Fisher Scientific, cat. 17504044), 1X N-2 supplement (Thermo Fisher Scientific, cat. 17502048), 10 microM Y-27632 dihydrochloride (Tocris Bioscience, cat. 1254), and 50 ng/mL human EGF recombinant protein (Thermo Fisher Scientific, cat. PHG0311). The 485176-168-R4-J1-PDC line was cultured in Panc media, which includes all 6C/Colon 1B media components plus 100 ng/mL human FGF-10 (Thermo Fisher Scientific, cat. 100-26), 500 nM SB-431542 (Selleckchem, cat. S1067), and gastrin (Tocris, cat. 3006).
# […]
# [1] = second compound 0.0316 µM, first compound 0.0316 µM
# [2] = second compound 0.0316 µM, first compound 0.1 µM
# [3] = second compound 0.0316 µM, first compound 0.316 µM
# [4] = second compound 0.0316 µM, first compound 1 µM
# [5] = second compound 0.0316 µM, first compound 3.16 µM
# [6] = second compound 0.0316 µM, first compound 10 µM
# [7] = second compound 0.1 µM, first compound 0.0316 µM
# [8] = second compound 0.1 µM, first compound 0.1 µM
# [9] = second compound 0.1 µM, first compound 0.316 µM
# [10] = second compound 0.1 µM, first compound 1 µM
# [11] = second compound 0.1 µM, first compound 3.16 µM
# [12] = second compound 0.1 µM, first compound 10 µM
# [13] = second compound 0.316 µM, first compound 0.0316 µM
# [14] = second compound 0.316 µM, first compound 0.1 µM
# [15] = second compound 0.316 µM, first compound 0.316 µM
# [16] = second compound 0.316 µM, first compound 1 µM
# [17] = second compound 0.316 µM, first compound 3.16 µM
# [18] = second compound 0.316 µM, first compound 10 µM
# [19] = second compound 1 µM, first compound 0.0316 µM
# [20] = second compound 1 µM, first compound 0.1 µM
# [21] = second compound 1 µM, first compound 0.316 µM
# [22] = second compound 1 µM, first compound 1 µM
# [23] = second compound 1 µM, first compound 3.16 µM
# [24] = second compound 1 µM, first compound 10 µM
# [25] = second compound 3.16 µM, first compound 0.0316 µM
# [26] = second compound 3.16 µM, first compound 0.1 µM
# [27] = second compound 3.16 µM, first compound 0.316 µM
# [28] = second compound 3.16 µM, first compound 1 µM
# [29] = second compound 3.16 µM, first compound 3.16 µM
# [30] = second compound 3.16 µM, first compound 10 µM
# [31] = second compound 10 µM, first compound 0.0316 µM
# [32] = second compound 10 µM, first compound 0.1 µM
# [33] = second compound 10 µM, first compound 0.316 µM
# [34] = second compound 10 µM, first compound 1 µM
# [35] = second compound 10 µM, first compound 3.16 µM
# [36] = second compound 10 µM, first compound 10 µM
# 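Note: spheroids exposed to agents for seven days before readout.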
# 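Throughout, for viability, T/C: percent of vehicle control viability where 100% = DMSO wells.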
smiles,measurement,setting,value
Nc1ccn(C2OC(CO)C(O)C2(F)F)c(=O)n1 (centres undefined) + CN(C)c1ccc(Nc2c3ccc(NC(=O)CCN4CCCC4)cc3nc3cc(NC(=O)CCN4CCCC4)ccc23)cc1,IC50,second compound 0.0316 µM,> 10 µM
same,IC50,second compound 0.1 µM,> 10 µM
same,IC50,second compound 0.316 µM,> 10 µM
same,IC50,second compound 1 µM,> 10 µM
same,IC50,second compound 3.16 µM,1.83 µM
same,IC50,second compound 10 µM,> 10 µM
same,"viability, T/C",[1],79.8%
same,"viability, T/C",[2],90.2%
same,"viability, T/C",[3],71%
same,"viability, T/C",[4],72.9%
same,"viability, T/C",[5],63.8%
same,"viability, T/C",[6],66.3%
same,"viability, T/C",[7],102%
same,"viability, T/C",[8],89.3%
same,"viability, T/C",[9],72.8%
same,"viability, T/C",[10],64.2%
same,"viability, T/C",[11],68.6%
same,"viability, T/C",[12],67%
same,"viability, T/C",[13],89.5%
same,"viability, T/C",[14],77.8%
same,"viability, T/C",[15],74.9%
same,"viability, T/C",[16],56.8%
same,"viability, T/C",[17],74%
same,"viability, T/C",[18],59.8%
same,"viability, T/C",[19],72%
same,"viability, T/C",[20],60.6%
same,"viability, T/C",[21],75%
same,"viability, T/C",[22],51.4%
same,"viability, T/C",[23],65.2%
same,"viability, T/C",[24],50.6%
same,"viability, T/C",[25],76.8%
same,"viability, T/C",[26],64.1%
same,"viability, T/C",[27],60.3%
same,"viability, T/C",[28],47.1%
same,"viability, T/C",[29],52.5%
same,"viability, T/C",[30],44.7%
same,"viability, T/C",[31],72.6%
same,"viability, T/C",[32],63.9%
same,"viability, T/C",[33],47.9%
same,"viability, T/C",[34],61.2%
same,"viability, T/C",[35],52.1%
same,"viability, T/C",[36],52.5%
O=c1[nH]cc(F)c(=O)[nH]1 + CN(C)c1ccc(Nc2c3ccc(NC(=O)CCN4CCCC4)cc3nc3cc(NC(=O)CCN4CCCC4)ccc23)cc1,IC50,second compound 0.0316 µM,> 10 µM
same,IC50,second compound 0.1 µM,> 10 µM
same,IC50,second compound 0.316 µM,> 10 µM
same,IC50,second compound 1 µM,> 10 µM
same,IC50,second compound 3.16 µM,> 10 µM
same,IC50,second compound 10 µM,> 10 µM
same,"viability, T/C",[1],105%
same,"viability, T/C",[2],103%
same,"viability, T/C",[3],98.7%
same,"viability, T/C",[4],100%
same,"viability, T/C",[5],78%
same,"viability, T/C",[6],85.8%
same,"viability, T/C",[7],90.8%
same,"viability, T/C",[8],103%
same,"viability, T/C",[9],101%
same,"viability, T/C",[10],95.8%
same,"viability, T/C",[11],86.4%
same,"viability, T/C",[12],97.2%
same,"viability, T/C",[13],89%
same,"viability, T/C",[14],88.1%
same,"viability, T/C",[15],87.7%
same,"viability, T/C",[16],79.7%
same,"viability, T/C",[17],86.5%
same,"viability, T/C",[18],78.5%
same,"viability, T/C",[19],91.7%
same,"viability, T/C",[20],69.9%
same,"viability, T/C",[21],80.5%
same,"viability, T/C",[22],73.3%
same,"viability, T/C",[23],76.3%
same,"viability, T/C",[24],83.2%
same,"viability, T/C",[25],82.7%
same,"viability, T/C",[26],83.5%
same,"viability, T/C",[27],87.8%
same,"viability, T/C",[28],80.6%
same,"viability, T/C",[29],71.4%
same,"viability, T/C",[30],75.5%
same,"viability, T/C",[31],76%
same,"viability, T/C",[32],80%
same,"viability, T/C",[33],80.6%
same,"viability, T/C",[34],79%
same,"viability, T/C",[35],87.8%
same,"viability, T/C",[36],75%
